Counter-ions that a name gives are not always drawn.

For the first test, the system named is homocysteine synthesis. The test is described as follows: Measurement of homocysteine synthesis inhibitory activity in vivo (methionine-loaded mouse, plasma homocysteine). As to conditions: dose of 10 mg/kg, oral, BALB/c mouse; methionine water 1 hr later; plasma 30 min after; read-out: activity (homocysteine synthesis inhibitory rate). The method, then: A sample was orally administered to BALB/c mouse and, 1 hr later, methionine water (50 g/L) was orally administered at a proportion of 10 ml/kg. 30 min later, blood samples were collected with heparin from the abdominal vein and plasma was obtained. The plasma homocysteine concentration was measured by treating the plasma with tributylphosphine, removing protein with 10% trichloroacetic acid (TCA), fluorescent labeling the supernatant with 4-fluoro-7-sulfobenzofurazan ammonium salt (SBD-F) under alkali conditions, and quantifying by HPLC. The homocysteine synthesis inhibitory rate of the sample was determined with the difference in the homocysteine value between methionine water-loaded animal and methionine water-unloaded animal as 100%. The detailed conditions of HPLC were as follows.
column used: Wakopak^R HandyODS 150*4.6 mm (Wako Pure Chemical Industries, Ltd.) elution condition: 1.0 ml/min elution solvent: 0.1M phosphate buffer (pH 6.0) 2% methanol wavelength: ex 385 nm em 515 nm
For the molecule `CCNCCNC(=O)CN(CC(=O)N(C)N1Cc2ccccc2C1)c1cc(C(C)=O)ccc1C` [57 (2HCl salt)], the inhibition in vivo at 10 mg/kg is ≥ 40%.
On to `CCNCCNC(=O)CN(CC(=O)N(C)N1Cc2ccc(F)cc2C1)c1cc2nn(CC(F)F)cc2cc1C` [Example 268, N^2-[2-(2,2-difluoroethyl)-5-methyl-2H-indazol-6-yl]-N^2-{2-[(5-fluoro-1,3-dihydro-2H-isoindol-2-yl)(methyl)amino]-2-oxoethyl}-N^1-[2-(ethylamino)ethyl]glycinamide hydrochloride], for which the inhibition in vivo at 10 mg/kg is < 20%.
For `Cc1nnc(-c2ccc(C)c(N(CC(=O)NCCNC(C)C)CC(=O)N(C)N3Cc4ccccc4C3)c2)s1` [Example 105, N^2-{2-[1,3-dihydro-2H-isoindol-2-yl(methyl)amino]-2-oxoethyl}-N^2-[2-methyl-5-(5-methyl-1,3,4-thiadiazol-2-yl)phenyl]-N^1-[2-(isopropylamino)ethyl]glycinamide dihydrochloride], the inhibition in vivo at 10 mg/kg is 20 to 40%.
The same measure, in the same setting: then `CCNCCNC(=O)CN(CC(=O)N(C)N1Cc2ccccc2C1)c1ccc(-c2cnn(C)c2)cc1C` [Example 136, N^2-{2-[1,3-dihydro-2H-isoindol-2-yl(methyl)amino]-2-oxoethyl}-N^2-[2-methyl-4-(1-methyl-1H-pyrazol-4-yl)phenyl]-N^1-[2-(ethylamino)ethyl]glycinamide trihydrochloride], with ≥ 40%.
The same measure, in the same setting: then `CCNCCNC(=O)CN(CC(=O)N(C)N1Cc2ccc(F)cc2C1)c1cc2cn(CC(F)F)nc2cc1C` [Example 254, N^2-[2-(2,2-difluoroethyl)-6-methyl-2H-indazol-5-yl]-N^2-{2-[(5-fluoro-1,3-dihydro-2H-isoindol-2-yl)(methyl)amino]-2-oxoethyl}-N^1-[2-(ethylamino)ethyl]glycinamide hydrochloride], with 20 to 40%.

In another test the target is T1, Human-recombinant-S-Adenosyl-L-Homocysteine Hydrolase (Homo sapiens, UniProt P23526).
T1 construct: purchased Diazyme Laboratories
T1 sequence (P23526 whole entry): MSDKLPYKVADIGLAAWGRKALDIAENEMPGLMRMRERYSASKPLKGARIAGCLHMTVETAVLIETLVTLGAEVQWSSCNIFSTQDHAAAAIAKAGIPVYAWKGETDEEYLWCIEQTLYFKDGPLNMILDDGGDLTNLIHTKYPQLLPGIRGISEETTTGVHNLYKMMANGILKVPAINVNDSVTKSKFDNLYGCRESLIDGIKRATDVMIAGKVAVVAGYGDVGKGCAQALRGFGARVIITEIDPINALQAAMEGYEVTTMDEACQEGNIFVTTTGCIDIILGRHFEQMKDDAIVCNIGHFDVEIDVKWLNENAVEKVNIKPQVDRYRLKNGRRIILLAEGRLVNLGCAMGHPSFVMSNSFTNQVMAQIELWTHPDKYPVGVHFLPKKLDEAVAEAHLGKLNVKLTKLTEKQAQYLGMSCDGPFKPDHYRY
The test is described as follows: Measurement of enzyme inhibitory activity (hydrolysis of S-Adenosyl-L-Homocysteine, HPLC). In kind it is biochemical. As to conditions: S-Adenosyl-L-Homocysteine 10 μM, pH 7.2, 37° C., 15 min. The method, then: The enzyme inhibitory activity of the compounds of the Examples was measured using the hydrolysis activity of S-Adenosyl-L-Homocysteine as an index. The measurement method was modification of the method of Henry H. Richards et al. (J. Biol. Chem. 253, 4476-4480, 1978). That is, S-Adenosyl-L-Homocysteine (10 μM) and Adenosine Deaminase (Roche) (4 units) were added to 50 mM phosphate buffer (pH 7.2, containing 1 mM EDTA) with the total amount being 200 μl, and to the solution were added a test substance and then Human-recombinant-S-Adenosyl-L-Homocysteine Hydrolase (50 ng, Diazyme Laboratories) to start the reaction, and the mixture was incubated at 37° C. for 15 min. The reaction was quenched by the addition of 1N aqueous perchloric solution (20 μl), and the mixture was centrifuged under the conditions of 10000 rpm, 5 min, 4° C. The supernatant was collected, and the amount of S-Adenosyl-L-Homocysteine after the reaction was quantified by HPLC. The column used was a reversed-phase column. The detailed conditions of HPLC were as follows.
column used: Wakopak^R HandyODS 150*4.6 mm (Wako Pure Chemical Industries, Ltd.) elution condition: 1.0 ml/min elution solvent: 0.1M acetate buffer (pH 4.0) containing 10 mM 1-heptanesulfonic acid containing 4% acetonitrile wavelength: 258 nm (UV) The inhibitory rate was determined with the amount of decrease in S-Adenosyl-L-Homocysteine before and after the reaction without using the test substance as 100%.
Inhibitory rate (%)={(amount of decrease of S-Adenosyl-L-Homocysteine in the presence of test substance)/(amount of decrease of S-Adenosyl-L-Homocysteine in the absence of test substance)}×100
For `CCNCCNC(=O)CN(CC(=O)N(C)N1Cc2ccccc2C1)c1cc(C(C)=O)ccc1C` [Example 57, N^2-(5-acetyl-2-methylphenyl)-N^2-{2-[1,3-dihydro-2H-isoindol-2-yl(methyl)amino]-2-oxoethyl}-N^1-[2-(ethylamino)ethyl]glycinamide], the IC50 was found to be 42 nM.
Still for that read-out and setting: then `CCNCCNC(=O)CN(CC(=O)N(C)N1Cc2ccccc2C1)c1ccc(-n2cc(C(N)=O)cn2)cc1C` [Example 303, N^2-{4-[4-(aminocarbonyl)-1H-pyrazol-1-yl]-2-methylphenyl}-N^2-{2-[1,3-dihydro-2H-isoindol-2-yl(methyl)amino]-2-oxoethyl}-N^1-[2-(ethylamino)ethyl]glycinamide dihydrochloride], with 41 nM; and `Cc1cc2onc(C)c2cc1N(CC(=O)NCCNC(C)C)CC(=O)N(C)N1Cc2ccccc2C1` [Example 180, N^2-{2-[1,3-dihydro-2H-isoindol-2-yl(methyl)amino]-2-oxoethyl}-N^2-(3,6-dimethyl-1,2-benzisoxazol-5-yl)-N^1-[2-(isopropylamino)ethyl]glycinamide], with 15 nM; and `Cc1cc2c(cc1N(CC(=O)NCCNC(C)C)CC(=O)N(C)N1Cc3ccccc3C1)oc(=O)n2C` [Example 192, N^2-{2-[1,3-dihydro-2H-isoindol-2-yl(methyl)amino]-2-oxoethyl}-N^2-(3,5-dimethyl-1,3-benzoxazol-2(3H)-on-6-yl)-N^1-[2-(isopropylamino)ethyl]glycinamide], with 46 nM.
The same measure, in the same setting: then `CCNCCNC(=O)CN(CC(=O)N(C)N1Cc2ccc(F)cc2C1)c1cc2c(C)nn(C)c2cc1C` [Example 256, N^2-{2-[(5-fluoro-1,3-dihydro-2H-isoindol-2-yl)(methyl)amino]-2-oxoethyl}-N^2-(1,3,6-trimethyl-1H-indazol-5-yl)-N^1-[2-(ethylamino)ethyl]glycinamide hydrochloride], with 47 nM; and `CCNCCNC(=O)CN(CC(=O)N(C)N1Cc2ccccc2C1)c1cc2c(cc1C)CCC2=O` [Example 214, N^2-{2-[1,3-dihydro-2H-isoindol-2-yl(methyl)amino]-2-oxoethyl}-N^2-(6-methyl-3-oxo-2,3-dihydro-1H-inden-5-yl)-N^1-[2-(ethylamino)ethyl]glycinamide], with 23 nM.
As for `CCNCCNC(=O)CN(CC(=O)N(C)N1Cc2ccccc2C1)c1cc(-c2noc(C)n2)ccc1C` [Example 16, N^2-{2-[1,3-dihydro-2H-isoindol-2-yl(methyl)amino]-2-oxoethyl}-N^2-[2-methyl-5-(5-methyl-1,2,4-oxadiazol-3-yl)phenyl]-N^1-[2-(ethylamino)ethyl]glycinamide], the IC50 came out at 19 nM.
Still for that read-out and setting: with `CCNCCNC(=O)CN(CC(=O)N(C)N1Cc2ccccc2C1)c1cc(-c2ncccn2)ccc1C` [Example 129, N^2-{2-[1,3-dihydro-2H-isoindol-2-yl(methyl)amino]-2-oxoethyl}-N^2-(2-methyl-5-pyrimidin-2-ylphenyl)-N^1-[2-(ethylamino)ethyl]glycinamide] the figure was 10 nM; with `CCNCCNC(=O)CN(CC(=O)N(C)N1Cc2ccccc2C1)c1ccc(-c2noc(C(F)(F)F)n2)cc1C` [Example 289, N^2-{2-[1,3-dihydro-2H-isoindol-2-yl(methyl)amino]-2-oxoethyl}-N^2-{2-methyl-4-[5-(trifluoromethyl)-1,2,4-oxadiazol-3-yl]phenyl}-N^1-[2-(ethylamino)ethyl]glycinamide dihydrochloride], 76 nM; with `CC(=O)c1ccc(C)c(N(CC(=O)NCCNC(C)C)CC(=O)N(C)N2Cc3ccccc3C2)c1` [Example 56, N^2-(5-acetyl-2-methylphenyl)-N^2-{2-[1,3-dihydro-2H-isoindol-2-yl(methyl)amino]-2-oxoethyl}-N^1-[2-(isopropylamino)ethyl]glycinamide], 52 nM.
On the same count and under the same terms, then `CCNCCNC(=O)CN(CC(=O)N(C)N1Cc2cccc(F)c2C1)c1cc2c(cc1C)CCC2=O` [Example 216, N^2-{2-[(4-fluoro-1,3-dihydro-2H-isoindol-2-yl)(methyl)amino]-2-oxoethyl}-N^2-(6-methyl-3-oxo-2,3-dihydro-1H-inden-5-yl)-N^1-[2-(ethylamino)ethyl]glycinamide], with 33 nM.
The same measure, in the same setting: then `CCNCCNC(=O)CN(CC(=O)N(C)N1Cc2cccc(F)c2C1)c1ccc(-c2noc(C)n2)cc1C` [Example 205, N^2-{2-[(4-fluoro-1,3-dihydro-2H-isoindol-2-yl)(methyl)amino]-2-oxoethyl}-N^2-[2-methyl-4-(5-methyl-1,2,4-oxadiazol-3-yl)phenyl]-N^1-[2-(ethylamino)ethyl]glycinamide], with 48 nM; and `Cc1cc2c(cnn2C)cc1N(CC(=O)NCCNC(C)C)CC(=O)N(C)N1Cc2ccccc2C1` [Example 242, N^2-{2-[1,3-dihydro-2H-isoindol-2-yl(methyl)amino]-2-oxoethyl}-N^2-(1,6-dimethyl-1H-indazol-5-yl)-N^1-[2-(isopropylamino)ethyl]glycinamide hydrochloride], with 6 nM; and `CCNCCNC(=O)CN(CC(=O)N(C)N1Cc2ccc(F)cc2C1)c1cc2c(cnn2C)cc1C` [Example 259, N^2-(1,5-dimethyl-1H-indazol-6-yl)-N^2-{2-[(5-fluoro-1,3-dihydro-2H-isoindol-2-yl)(methyl)amino]-2-oxoethyl}-N^1-[2-(ethylamino)ethyl]glycinamide hydrochloride], with 30 nM.
Turning to `CCNCCNC(=O)CN(CC(=O)N(C)N1Cc2ccccc2C1)c1cc(-c2nc(C)no2)ccc1C` [Example 85, N^2-{2-[1,3-dihydro-2H-isoindol-2-yl(methyl)amino]-2-oxoethyl}-N^2-[2-methyl-5-(3-methyl-1,2,4-oxadiazol-5-yl)phenyl]-N^1-[2-(ethylamino)ethyl]glycinamide], the IC50 was determined as 17 nM.
As for `CCNCCNC(=O)CN(CC(=O)N(C)N1Cc2ccc(F)cc2C1)c1cc2c(cc1C)c(CC)nn2CC(F)F` [Example 279, N^2-[1-(2,2-difluoroethyl)-3-ethyl-5-methyl-1H-indazol-6-yl]-N^2-{2-[(5-fluoro-1,3-dihydro-2H-isoindol-2-yl)(methyl)amino]-2-oxoethyl}-N^1-[2-(ethylamino)ethyl]glycinamide hydrochloride], the IC50 worked out at 66 nM.

The record behind these values is patent publication US20120196824A1, “THERAPEUTIC AGENT FOR CEREBRAL INFARCTION” (MITSUBISHI TANABE PHARMA CORPORATION, priority 2009, published 2012).
